Source: patent US20070270421A1, “Novel pyridine Derivative and Pyrimidine Derivative (1)” (priority 2004, published 2007)

Assays:
HGFR autophosphorylation = target: T1, HGFR autophosphorylation (Homo sapiens, UniProt P08581); experiment: Inhibitory activity against the HGFR autophosphorylation using ELISA; type: cell-based; conditions: MKN-45 cells, 1 hr treatment, read-out: IC50 (concentration necessary to inhibit HGFR autophosphorylation activity by 50%)
T1 construct: endogenous in cells; host or cells: MKN-45 human gastric cancer cells
Procedure: Human gastric cancer cells (MKN-45) were suspended in a 1% FBS-containing RPMI1640 medium (purchased from Sigma). The cell suspension (1×10^5 cells/ml) was put in a 96-well plate for cell culture (purchased from NUNC, Production No. 167008) at 0.1 ml/well, and then cultured in a 5% CO2 incubator (37° C.) overnight. After the culture, from each well was removed the supernatant solution, followed by adding 0.05 ml of a 1% FBS-containing RPMI1640 medium. Then, the well was supplied with 0.05 ml of the test substance dissolved in dimethyl sulfoxide (diluted with a 1% FBS-containing RPMI1640 medium), followed by culturing in a 5% CO2 incubator (37° C.) for 1 hr. From each well was removed the supernatant, and each well was washed with 150 μl of PBS, followed by adding 100 μl of a lysis buffer (50 mM Hepes (pH 7.4), 150 mM NaCl, 10% (v/v) glycerol, 1% Triton X-100, 1.5 mM MgCl2, 1 mM EDTA (pH 8.0), 100 mM NaF, 1 mM PMSF, 10 μg/ml Aprotinin, 50 μg/ml Leupeptin, 1 μg/ml Pepstatin A and 1 mM Na3VO4). The plate was shaken at 4° C. for 1 hr to prepare the cell extract.
To a 96-well plate for ELISA (purchased from COSTAR, Production No. 3369) was added 50 μl of 60 mM bicarbonate buffer (pH 9.6) containing 50 μg/ml of an anti-phosphotyrosine antibody (PY20, purchased from Transduction Laboratory, Production No. P-11120). The plate was incubated at 4° C. overnight.
Each well of the plate prepared in 2. was washed three times with 200 μl of PBS, and supplied with 150 μl of 3% BSA/PBS, followed by incubating at room temperature for 2 hrs. Each well was washed three times with 200 μl of PBS, and supplied with 50 μl of the above cell extract, followed by incubating at 4° C. overnight. After the incubation, each well was washed three times with 250 μl of a washing solution (0.1% BSA, 20 mM Tris-HCl (pH 7.6), 137 mM NaCl, and 0.05% Tween-20), and supplied with 70 μl of anti-HGFR antibody (h-Met(C-12), purchased from Santa Cruz, Production No. sc-10) 2,000-fold diluted with a reaction solution (1% BSA, 20 mM Tris-HCl (pH 7.6), 137 mM NaCl and 0.05% Tween-20), followed by incubating at room temperature for 1 hr. The well was washed three times with 250 μl of the washing solution, and supplied with 70 μl of peroxidase-labelled anti-rabbit IgG antibody (purchased from Cell Signaling, Production No. 7074) 2,000-fold diluted with the reaction solution, followed by incubating at room temperature for 1 hr. Each well was washed three times with 250 μl of the washing solution, and supplied with 70 μl of TMB Membrane Peroxidase Substrate (purchased from Funakoshi, Production No. 50-5077-03), followed by incubating at room temperature for 10 min. Each well was supplied with 70 μl of 1 M phosphoric acid, and using the Plate Reader MTP-500 (Corona Electric), the absorbance of the well was instantly determined at a measurement wavelength of 450 nm. While defining the absorbance of a well supplied with the cell extract having no test substance as 100% HGFR autophosphorylation activity, and the absorbance of a well supplied with 50 μl of the lysis buffer as 0% HGFR autophosphorylation activity, the HGFR autophosphorylation activity (%) was calculated for each well. The concentration of the test substance was changed by several levels to calculate HGFR autophosphorylation activities (%) in respective cases, and to calculate the concentration (IC50) of the test substance necessary to inhibit HGFR autophosphorylation activity by 50%.

[1] = system: Human gastric cancer cells (MKN-45); experiment: Inhibitory activity against the proliferation of human gastric cancer cells (MKN-45); type: cell-based; conditions: 72 h, MKN-45, 1% FBS RPMI1640, 3 days, Cell Counting Kit-8, read-out: IC50 (concentration necessary to inhibit the cell proliferation by 50%)
Procedure: Human gastric cancer cells (MKN-45) were suspended in a 1% FBS-containing RPMI1640 medium (purchased from Sigma). The cell suspension (1×10^4 cells/ml) was added in a 96-well plate for cell culture (purchased from NUNC, Production No. 167008) at 0.1 ml/well, and then cultured in a 5% CO2 incubator (37° C.) overnight. After the culture, each well was supplied with 0.1 ml of a test substance diluted with a 1% FBS-containing RPMI1640 medium, followed by culturing in a 5% CO2 incubator (37° C.) for 3 days. After the culture, each well was supplied with 10 μl of Cell Counting Kit-8 (purchased from DOJINDO, Production No. 343-07623), followed by incubation in a 5% CO2 incubator (37° C.) for about 1.5 hrs. After the incubation, using the Plate Reader MTP-500 (Corona Electric), the absorbance of each well was determined at a measurement wavelength of 450 nm and a reference wavelength of 660 nm. The ratio (%) of absorbance of each well supplied with a test substance to absorbance of the well supplied with no test substance was calculated, and the ratio was used to calculate the concentration (IC50) of the test substance necessary to inhibit the cell proliferation by 50%.

T1 sequence (P08581 25-1390): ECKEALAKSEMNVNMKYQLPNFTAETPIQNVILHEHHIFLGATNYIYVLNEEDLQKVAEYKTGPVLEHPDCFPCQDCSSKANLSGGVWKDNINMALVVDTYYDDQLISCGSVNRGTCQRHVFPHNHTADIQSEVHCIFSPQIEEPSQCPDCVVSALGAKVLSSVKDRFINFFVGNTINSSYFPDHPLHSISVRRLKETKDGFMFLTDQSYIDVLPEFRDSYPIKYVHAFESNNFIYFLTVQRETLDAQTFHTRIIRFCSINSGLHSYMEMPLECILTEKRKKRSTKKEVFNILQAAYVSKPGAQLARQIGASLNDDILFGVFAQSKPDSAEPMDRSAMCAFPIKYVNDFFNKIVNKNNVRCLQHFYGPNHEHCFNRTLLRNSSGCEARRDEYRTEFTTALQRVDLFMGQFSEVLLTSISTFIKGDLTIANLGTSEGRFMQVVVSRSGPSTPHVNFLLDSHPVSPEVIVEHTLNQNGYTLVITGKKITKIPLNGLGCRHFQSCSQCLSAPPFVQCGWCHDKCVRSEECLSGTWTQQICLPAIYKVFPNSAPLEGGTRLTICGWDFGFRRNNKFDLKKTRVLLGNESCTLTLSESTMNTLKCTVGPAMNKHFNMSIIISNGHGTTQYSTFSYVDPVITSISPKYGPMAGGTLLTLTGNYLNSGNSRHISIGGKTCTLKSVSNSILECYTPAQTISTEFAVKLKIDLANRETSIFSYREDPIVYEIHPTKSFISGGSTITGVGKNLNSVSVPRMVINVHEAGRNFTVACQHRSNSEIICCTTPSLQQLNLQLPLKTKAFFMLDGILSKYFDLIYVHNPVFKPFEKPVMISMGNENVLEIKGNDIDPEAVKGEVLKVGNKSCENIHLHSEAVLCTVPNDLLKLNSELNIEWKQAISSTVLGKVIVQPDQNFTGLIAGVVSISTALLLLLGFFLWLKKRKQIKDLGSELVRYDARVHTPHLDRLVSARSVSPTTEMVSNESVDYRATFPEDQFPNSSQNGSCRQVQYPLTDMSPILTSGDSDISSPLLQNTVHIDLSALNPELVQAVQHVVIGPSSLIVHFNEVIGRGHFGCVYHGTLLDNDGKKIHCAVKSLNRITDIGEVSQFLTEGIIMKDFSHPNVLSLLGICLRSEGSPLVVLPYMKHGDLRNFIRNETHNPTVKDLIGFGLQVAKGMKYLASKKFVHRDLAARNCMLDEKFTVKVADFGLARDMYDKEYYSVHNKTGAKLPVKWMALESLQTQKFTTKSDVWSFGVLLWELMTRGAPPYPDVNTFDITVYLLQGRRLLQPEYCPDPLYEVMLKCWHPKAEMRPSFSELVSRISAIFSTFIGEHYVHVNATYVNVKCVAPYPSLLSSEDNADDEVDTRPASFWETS

`CN1CCCN(C(=O)Nc2cc(Oc3ccc(NC(=O)CC(=O)Nc4ccc(F)cc4)c(F)c3)ccn2)CC1` [Example 92, N-(2-Fluoro-4-{2-[(4-methyl-[1,4]diazepane-1-carbonyl)amino]pyridin-4-yloxy}phenyl)-N′-(4-fluorophenyl)malonamide] was tested, and the IC50 (HGFR autophosphorylation) was 540 nM and the IC50 [1] was 570 nM.
